Assay results from the supplement of paper PMC10307832.

How the values were obtained:
Test in all cases: relative viability (nuclei count vs DMSO), 5 days (fraction); higher = more cells survive
HCC-15 = tested on: HCC-15
Summary of the method: (§1)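 Relative viability is defined as nuclei in treated wells over nuclei in vehicle wells. Duplicate plates were run and medians reported. Lung cancer cell lines in 1536-well plates were dosed by pin tool one day after seeding, with one drug or with a fixed anchor-drug dose plus five library-drug doses (not always all listed) in √10 steps, and nuclei were counted after 5 days.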

NCI-H596 = tested on: NCI-H596
Summary of the method: as §1

NCI-H2009 = tested on: NCI-H2009
Summary of the method: as §1

NCI-H2023 = tested on: NCI-H2023
Summary of the method: as §1

NCI-H2405 = tested on: NCI-H2405
Summary of the method: as §1

NCI-H1975 = tested on: NCI-H1975
Summary of the method: as §1

A-427 = tested on: A-427
Summary of the method: as §1

SK-LU-1 = tested on: SK-LU-1
Summary of the method: as §1

LXF-289 = tested on: LXF-289
Summary of the method: as §1

HCC-366 = tested on: HCC-366
Summary of the method: as §1

NCI-H1437 = tested on: NCI-H1437
Summary of the method: as §1

UMC-11 = tested on: UMC-11
Summary of the method: as §1

**Q.** Which relative viability (HCC-15; first compound 5 µM) does the source give for `O=C(O)CCCCC(CCSCc1ccccc1)SCc1ccccc1` (configuration not stated) [CPI-613] + Cc1nc(NC(=O)N2CCC[C@H]2C(N)=O)sc1-c1ccnc(C(C)(C)C(F)(F)F)c1 [Alpelisib] (partner 2 µM) here?
**A.** 0.942

**Q.** And the relative viability (HCC-15; first compound 15.81 µM)?
**A.** 0.805

**Q.** What about the relative viability (HCC-15; first compound 50 µM) of the same compound?
**A.** 0.828

**Q.** What about the relative viability (HCC-15; first compound 158.11 µM) of the same compound?
**A.** 0.562

**Q.** What about the relative viability (HCC-15; first compound 500 µM) of the same compound?
**A.** 0.35

**Q.** What about the relative viability (NCI-H596; first compound 5 µM) of the same compound?
**A.** 0.539

**Q.** And the relative viability (NCI-H596; first compound 15.81 µM)?
**A.** 0.496

**Q.** And the relative viability (NCI-H596; first compound 50 µM)?
**A.** 0.539

**Q.** What about the relative viability (NCI-H596; first compound 158.11 µM) of the same compound?
**A.** 0.473

**Q.** What about the relative viability (NCI-H596; first compound 500 µM) of the same compound?
**A.** 0.0181

**Q.** And the relative viability (NCI-H2009; first compound 5 µM)?
**A.** 1.19

**Q.** And the relative viability (NCI-H2009; first compound 15.81 µM)?
**A.** 1.1

**Q.** What about the relative viability (NCI-H2009; first compound 50 µM) of the same compound?
**A.** 1.12

**Q.** And the relative viability (NCI-H2009; first compound 158.11 µM)?
**A.** 0.141

**Q.** And the relative viability (NCI-H2009; first compound 500 µM)?
**A.** 0.014

**Q.** And the relative viability (NCI-H2023; first compound 5 µM)?
**A.** 0.624

**Q.** What about the relative viability (NCI-H2023; first compound 15.81 µM) of the same compound?
**A.** 0.576

**Q.** What about the relative viability (NCI-H2023; first compound 50 µM) of the same compound?
**A.** 0.548

**Q.** And the relative viability (NCI-H2023; first compound 158.11 µM)?
**A.** 0.0809

**Q.** What about the relative viability (NCI-H2023; first compound 500 µM) of the same compound?
**A.** 0.0084

**Q.** And the relative viability (NCI-H2405; first compound 5 µM)?
**A.** 0.882

**Q.** What about the relative viability (NCI-H2405; first compound 15.81 µM) of the same compound?
**A.** 0.78

**Q.** What about the relative viability (NCI-H2405; first compound 50 µM) of the same compound?
**A.** 0.778

**Q.** And the relative viability (NCI-H2405; first compound 158.11 µM)?
**A.** 0.772

**Q.** What about the relative viability (NCI-H2405; first compound 500 µM) of the same compound?
**A.** 0.734

**Q.** And the relative viability (NCI-H1975; first compound 5 µM)?
**A.** 0.542

**Q.** What about the relative viability (NCI-H1975; first compound 15.81 µM) of the same compound?
**A.** 0.655

**Q.** And the relative viability (NCI-H1975; first compound 50 µM)?
**A.** 0.692

**Q.** What about the relative viability (NCI-H1975; first compound 158.11 µM) of the same compound?
**A.** 0.327

**Q.** What about the relative viability (NCI-H1975; first compound 500 µM) of the same compound?
**A.** 0.0528

**Q.** What about the relative viability (A-427; first compound 5 µM) of the same compound?
**A.** 1.02

**Q.** What about the relative viability (A-427; first compound 15.81 µM) of the same compound?
**A.** 1.06

**Q.** And the relative viability (A-427; first compound 50 µM)?
**A.** 1.01

**Q.** And the relative viability (A-427; first compound 158.11 µM)?
**A.** 0.985

**Q.** And the relative viability (A-427; first compound 500 µM)?
**A.** 0.857

**Q.** What about the relative viability (SK-LU-1; first compound 5 µM) of the same compound?
**A.** 1.05

**Q.** And the relative viability (SK-LU-1; first compound 15.81 µM)?
**A.** 0.849

**Q.** What about the relative viability (SK-LU-1; first compound 50 µM) of the same compound?
**A.** 0.57

**Q.** What about the relative viability (SK-LU-1; first compound 158.11 µM) of the same compound?
**A.** 0.175

**Q.** What about the relative viability (SK-LU-1; first compound 500 µM) of the same compound?
**A.** 0.114

**Q.** What about the relative viability (LXF-289; first compound 5 µM) of the same compound?
**A.** 1.02

**Q.** And the relative viability (LXF-289; first compound 15.81 µM)?
**A.** 0.961

**Q.** And the relative viability (LXF-289; first compound 50 µM)?
**A.** 0.988

**Q.** And the relative viability (LXF-289; first compound 158.11 µM)?
**A.** 0.318

**Q.** And the relative viability (LXF-289; first compound 500 µM)?
**A.** 0.0306

**Q.** What about the relative viability (HCC-366; first compound 5 µM) of the same compound?
**A.** 0.322

**Q.** And the relative viability (HCC-366; first compound 15.81 µM)?
**A.** 0.373

**Q.** And the relative viability (HCC-366; first compound 50 µM)?
**A.** 0.441

**Q.** What about the relative viability (HCC-366; first compound 158.11 µM) of the same compound?
**A.** 0.355

**Q.** What about the relative viability (HCC-366; first compound 500 µM) of the same compound?
**A.** 0.0061

**Q.** And the relative viability (NCI-H1437; first compound 5 µM)?
**A.** 0.944

**Q.** And the relative viability (NCI-H1437; first compound 15.81 µM)?
**A.** 0.961

**Q.** And the relative viability (NCI-H1437; first compound 50 µM)?
**A.** 1.03

**Q.** And the relative viability (NCI-H1437; first compound 158.11 µM)?
**A.** 0.16

**Q.** What about the relative viability (NCI-H1437; first compound 500 µM) of the same compound?
**A.** 0.0244

**Q.** And the relative viability (UMC-11; first compound 5 µM)?
**A.** 0.89

**Q.** And the relative viability (UMC-11; first compound 15.81 µM)?
**A.** 0.964
